From US9840478B2 (MERCK SHARP & DOHME CORP., priority 2013, dated 2017)

What follows are molecules tested on HIV-1 (H9IIIB strain) (assay: Cell-based HIV infection assay using a reporter (Cell-Based), MT4-GFP cells). Conditions: Human immunodeficiency virus 1, MT4-GFP cells infected with HIV-1 H9IIIB; 50% normal human serum; mean of at least two independent experiments; read-out: Cell-based IP.
How it was run: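 IC50 from 4-parameter dose-response of % viral growth inhibition, using the 48 h/24 h infected-cell ratio scaled between DMSO and a protease/integrase/NNRTI triple-drug control. Assay used MT4 cells with HIV-LTR-GFP reporter, pre-infected 24 h with HIV-1 H9IIIB, in 50% normal human serum.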
`CC(Oc1ccccc1)C(=O)N1CCNC[C@@H]1CCc1c(F)cncc1NC(=O)C[C@@H](c1ccc(F)cc1)c1cc(F)cc(F)c1` (stereo partly drawn) [Example 347, (3S)-3-(3,5-difluorophenyl)-N-(5-fluoro-4-{2-[(2S)-1-(2-phenoxypropanoyl)piper-azin-2-yl]ethyl}pyridin-3-yl)-3-(4-fluorophenyl)propanamide] was tested, and the IC50 was 57 nM. Molecule `O=C(C[C@@H](c1ccc(F)cc1)c1cc(F)cc(F)c1)Nc1cncc(F)c1CC[C@H]1CNCCN1C(=O)CCOc1ccccc1` [Example 348, (3S)-3-(3,5-difluorophenyl)-N-(5-fluoro-4-{2-[(2S)-1-(3-phenoxypropanoyl)piper-azin-2-yl]ethyl}pyridin-3-yl)-3-(4-fluorophenyl)propanamide] has an IC50 of 190 nM. `CC(C)(C)c1ccc(OCC(=O)N2CCNC[C@@H]2CCc2c(F)cncc2NC(=O)C[C@@H](c2ccc(F)cc2)c2cc(F)cc(F)c2)cc1` [Example 349, (3S)-N-[4-(2-{(2S)-1-[(4-tert-butylphenoxy)acetyl]pipe-razin-2-yl}ethyl)-5-fluoropyridin-3-yl]-3-(3,5-difluorophenyl)-3-(4-fluorophenyl)propanamide] showed an IC50 of 1500 nM. In the case of `COC(=O)N[C@H](C(=O)N[C@H]1CCC[C@@H]1CC[C@H]1CNCCN1S(=O)(=O)c1ccccc1)C(c1ccc(F)cc1)c1ccc(F)cc1` [Example 350, Methyl ((S)-1,1-bis(4-fluorophenyl)-3-oxo-3-(((1S,2R)-2-(2-((S)-1-(phenylsulfonyl)piperazin-2-yl)ethyl)cyclopentyl)amino)propan-2-yl)carbamate], the IC50 is reported as 12 nM. In the case of `COC(=O)N[C@H](C(=O)N[C@@H]1CCC[C@H]1CC[C@H]1CNCCN1S(=O)(=O)c1ccccc1)C(c1ccc(F)cc1)c1ccc(F)cc1` [Example 351, Methyl ((S)-1,1-bis(4-fluorophenyl)-3-oxo-3-(((1R,2S)-2-(2-((S)-1-(phenylsulfonyl)piperazin-2-yl)ethyl)cyclopentyl)amino)propan-2-yl)carbamate], the IC50 is reported as 360 nM. `COC(=O)N[C@H](C(=O)NC1CCCC1CC[C@H]1CNCCN1S(C)(=O)=O)C(c1ccc(F)cc1)c1ccc(F)cc1` (stereo partly drawn) [Example 352, 4-fluoro-beta-(4-fluorophenyl)-Nalpha-(methoxycarbonyl)-N-(2-{2-[(2S)-1-(methylsulfonyl)piperazin-2-yl]ethyl}cyclopentyl)-L-phenylalaninamide] showed an IC50 of 190 nM. `N[C@H](C(=O)N[C@@H]1CCCC[C@H]1CC[C@H]1CNCCN1S(=O)(=O)c1ccccc1)C(c1ccc(F)cc1)c1ccc(F)cc1` [Example 353, 4-fluoro-beta-(4-fluorophenyl)-N-[(1R,2S)-2-{2-[(2S)-1-(phenylsulfonyl)piperazin-2-yl]ethyl}cyclohexyl]-L-phenylalaninamide] was tested, and the IC50 was 540 nM. In the case of `COC(=O)N[C@H](C(=O)N[C@H]1CCCC[C@@H]1CC[C@H]1CNCCN1S(=O)(=O)c1ccccc1)C(c1ccc(F)cc1)c1ccc(F)cc1` [Example 354, methyl ((S)-1,1-bis(4-fluorophenyl)-3-oxo-3-(((1S,2R)-2-(2-((S)-1-(phenylsulfonyl)piperazin-2-yl)ethyl)cyclohexyl)amino)propan-2-yl)carbamate], the IC50 is reported as 22 nM. `COC(=O)N[C@H](C(=O)N[C@H]1CCCC[C@@H]1CC[C@H]1CNCCN1S(=O)(=O)c1ccccc1)[C@@H](c1ccc(Cl)cc1)C1CCOCC1` [Example 355, methyl ((1R,2S)-1-(4-chlorophenyl)-3-oxo-3-(((1S,2R)-2-(2-((S)-1-(phenylsulfonyl)piperazin-2-yl)ethyl)cyclohexyl)amino)-1-(tetrahydro-2H-pyran-4-yl)propan-2-yl)carbamate] was tested, and the IC50 was 14 nM. Work on `COC(=O)N[C@H](C(=O)NC1CCCC1CC[C@H]1CNCCN1S(=O)(=O)c1ccccc1)C(c1ccc(Cl)cc1)C1CCOCC1` (stereo partly drawn) [Example 356, methyl ((1R,2S)-1-(4-chlorophenyl)-3-oxo-3-((2-(2-((S)-1-(phenylsulfonyl)piperazin-2-yl)ethyl)cyclopentyl)amino)-1-(tetrahydro-2H-pyran-4-yl)propan-2-yl)carbamate] yielded an IC50 of 28 nM. Molecule `COC(=O)NC(C(=O)NC1CC(O)CC1CC[C@H]1CNCCN1S(=O)(=O)c1ccccc1)C(c1ccc(F)cc1)c1ccc(F)cc1` (stereo partly drawn) [Example 357, Methyl ((2R)-1,1-bis(4-fluorophenyl)-3-((4-hydroxy-2-(2-((S)-1-(phenylsulfonyl)piperazin-2-yl)ethyl)cyclopentyl)amino)-3-oxopropan-2-yl)carbamate] has an IC50 of 820 nM. Molecule `N[C@H](C(=O)NC1CC(F)(F)CC1CC[C@H]1CNCCN1S(=O)(=O)c1ccccc1)[C@H](c1ccc(Cl)cc1)C1CCOCC1` (stereo partly drawn) [Example 360, (betaS)-4-chloro-N-(4,4-difluoro-2-{2-[(2S)-1-(phenylsulfonyl)piperazin-2-yl]ethyl}cyclopentyl)-beta-(tetrahydro-2H-pyran-4-yl)-L-phenylalaninamide] has an IC50 of 610 nM. For `N[C@H](C(=O)Nc1cccc(F)c1CC[C@H]1CNCC2(CC2)N1S(=O)(=O)c1ccccc1)C(c1ccc(F)cc1)c1ccc(F)cc1` [Example 366, (S)-2-amino-N-(3-fluoro-2-(2-((S)-4-(phenylsulfonyl)-4,7-diazaspiro[2.5]octan-5-yl)ethyl)phenyl)-3,3-bis(4-fluorophenyl)propanamide], the IC50 was 13 nM. With `CS(=O)(=O)N1[C@@H](CCc2c(F)cccc2NC(=O)[C@@H](N)C(c2ccc(F)cc2)c2ccc(F)cc2)CNCC12CC2` [Example 367, (S)-2-amino-N-(3-fluoro-2-(2-((S)-4-(methylsulfonyl)-4,7-diazaspiro[2.5]octan-5-yl)ethyl)phenyl)-3,3-bis(4fluorophenyl)propanamide] the IC50 was 47 nM. Work on `N[C@H](C(=O)Nc1cccc(F)c1CC[C@H]1CNCC2(CC2)N1C(=O)COc1ccccc1)C(c1ccc(F)cc1)c1ccc(F)cc1` [Example 368, (S)-2-amino-N-(3-fluoro-2-(2-((S)-4-(2-phenoxyacetyl)-4,7-diazaspiro[2.5]octan-5-yl)ethyl)phenyl)-3,3-bis(4-fluorophenyl)propanamide] yielded an IC50 of 1500 nM. `COC(=O)N[C@H](C(=O)Nc1cccc(F)c1CC[C@H]1CNCC2(CC2)N1S(=O)(=O)c1ccccc1)[C@@H](c1ccc(Cl)cc1)C1CCOCC1` [Example 369, ((1R,2S)-1-(4-chlorophenyl)-3-((3-fluoro-2-(2-((S)-4-(phenylsulfonyl)-4,7-diazaspiro[2.5]octan-5-yl)ethyl)phenyl)amino)-3-oxo-1-(tetrahydro-2H-pyran-4-yl)propan-2-yl)carbamate] showed an IC50 of 11 nM. For `C[C@@H]1C[C@H]([C@H](c2ccc(F)cc2)[C@H](N)C(=O)Nc2cccc(F)c2CC[C@H]2CNC[C@@H](C)N2S(=O)(=O)c2ccccc2)C[C@H](C)O1` [Example 370, (2S,3R)-2-amino-3-((2R,4r,6S)-2,6-dimethyltetrahydro-2H-pyran-4-yl)-N-(3-fluoro-2-(2-((2S,6R)-6-methyl-1-(phenylsulfonyl)piperazin-2-yl)ethyl)phenyl)-3-(4-fluorophenyl)propanamide], the IC50 was 7.5 nM.

Same assay, conditions: MT4-GFP cells infected with HIV-1 H9IIIB; 50% normal human serum; mean of at least two independent experiments; read-out: Cell-based IP
Work on `N[C@H](C(=O)NC1CC(F)(F)CC1CC[C@H]1CNCCN1S(=O)(=O)c1ccccc1)[C@H](c1ccc(Cl)cc1)C1CCOCC1` (stereo partly drawn) [Example 361, (betaS)-4-hcloro-N-(4,4-difluoro-2-{2-[(2S)-1-(phenylsulfonyl)piperazin-2-yl]ethyl}cyclopentyl)-beta-(tetrahydro-2H-pyran-4-yl)-L-phenylalaninamide] yielded an IC50 of 880 nM.
